According to the supplement of paper PMC11061612:

Assays:
Assay in all cases: Bliss excess, mean over the matrix (fraction); higher = more synergy
[1] = tested on: MONO-MAC-6 (Acute Myeloid Leukemia)
Procedure, shortened: (§1)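 Cell lines grown in DMEM/F12 or RPMI with 10% FBS were plated in 1536-well plates and held 24 hours at 37°C, 5% CO2 before 72 hours of exposure to two-drug dose matrices, with DMSO typically at 0.2%. CellTiter-Glo 2.0 luminescence gave viability, which was converted to inhibition. Vehicle wells were set to 0 and blank wells to 1. Combination Emax is the second-highest inhibition in the matrix, and Bliss excess is the observed combination effect minus the expected EA + EB − EA·EB, where EA and EB are the single-agent effects.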

[2] = tested on: NCI-H2373 (Mesothelioma)
Procedure, shortened: as §1

[3] = tested on: COR-L88 (Small Cell Lung Carcinoma)
Procedure, shortened: as §1

[4] = tested on: SiHa (Cervical Carcinoma)
Procedure, shortened: as §1

[5] = tested on: SUP-M2 (T-Cell Non-Hodgkin's Lymphoma)
Procedure, shortened: as §1

[6] = tested on: P32-ISH (Burkitt's Lymphoma)
Procedure, shortened: as §1

[7] = tested on: OVCAR-3 (Ovarian Carcinoma)
Procedure, shortened: as §1

[8] = tested on: C-33-A (Cervical Carcinoma)
Procedure, shortened: as §1

[9] = tested on: MS-1 (Small Cell Lung Carcinoma)
Procedure, shortened: as §1

[10] = tested on: MOLT-13 (T-Lymphoblastic Leukemia)
Procedure, shortened: as §1

[11] = tested on: LS-1034 (Colorectal Carcinoma)
Procedure, shortened: as §1

[12] = tested on: ZR-75-30 (Breast Carcinoma)
Procedure, shortened: as §1

[13] = tested on: DBTRG-05MG (Glioblastoma)
Procedure, shortened: as §1

[14] = tested on: CPC-N (Small Cell Lung Carcinoma)
Procedure, shortened: as §1

[15] = tested on: NCI-H3118 (Head and Neck Carcinoma)
Procedure, shortened: as §1

[16] = tested on: ES6 (Ewing's Sarcoma)
Procedure, shortened: as §1

[17] = tested on: NCI-H1876 (Small Cell Lung Carcinoma)
Procedure, shortened: as §1

[18] = tested on: MDA-MB-415 (Breast Carcinoma)
Procedure, shortened: as §1

[19] = tested on: MOLP-8 (Plasma Cell Myeloma)
Procedure, shortened: as §1

[20] = tested on: RCC-JW (Kidney Carcinoma)
Procedure, shortened: as §1

Row | Structure (SMILES) | Bliss excess [1] | Bliss excess [2] | Bliss excess [3] | Bliss excess [4] | Bliss excess [5] | Bliss excess [6] | Bliss excess [7] | Bliss excess [8] | Bliss excess [9] | Bliss excess [10] | Bliss excess [11] | Bliss excess [12] | Bliss excess [13] | Bliss excess [14] | Bliss excess [15] | Bliss excess [16] | Bliss excess [17] | Bliss excess [18] | Bliss excess [19] | Bliss excess [20]
1 | Cc1c2c(nn1C)CSCc1cc(n(C)n1)CSc1cc(c3ccccc3c1)OCCCc1c(C(=O)O)n(C)c3c-2c(Cl)ccc13 [AZD5991] + Cc1cc2ncnn2cc1Nc1ncc2c(n1)n(C1CCOCC1)c(=O)n2C [AZD7648] (first compound max 1 µM, 7x7, partner max 10 µM) | 0.016 | -0.015 | -0.0006 | -0.0234 | -0.0146 | 0.0465 | -0.0311 | -0.0586 | -0.0158 | -0.0085 | 0.0092 | -0.0134 | -0.0436 | -0.0109 | -0.0707 | -0.0745 | -0.0266 | -0.0924 | 0.0192 | -0.0349
2 | Cc1c2c(nn1C)CSCc1cc(n(C)n1)CSc1cc(c3ccccc3c1)OCCCc1c(C(=O)O)n(C)c3c-2c(Cl)ccc13 [AZD5991] + C=CCn1c(=O)c2cnc(Nc3ccc(N4CCN(C)CC4)cc3)nc2n1-c1cccc(C(C)(C)O)n1 [AZD1775] (first compound max 1 µM, partner max 1 µM) | -0.0256 | -0.0079 | -0.0463 | -0.0646 | 0.0007 | -0.0228 | 0.031 | -0.0556 | -0.0462 | -0.0071 | -0.098 | 0.0376 | 0.005 | -0.0453 | -0.0361 | 0.0814 | -0.0292 | 0.0011 | -0.0041 | 0.0418
3 | COc1cc2c(cc1OCCCCCOc1cc3c(cc1OC)C(=O)N1C=C(C)C[C@H]1C=N3)N=C[C@@H]1CC(C)=CN1C2=O [SG3199] + O=C(c1cc(Cc2n[nH]c(=O)c3ccccc23)ccc1F)N1CCN(C(=O)C2CC2)CC1 [Olaparib] (first compound max 0.001 µM, 7x7, partner max 10 µM) | -0.015 | 0.0054 | -0.0133 | -0.0291 | 0.0274 | -0.0164 | -0.0205 | -0.0476 | 0.0418 | 0.018 | -0.0462 | -0.001 | -0.0357 | -0.0062 | -0.0471 | -0.0231 | -0.0267 | -0.0333 | 0.002 | -0.0231
4 | CN(C)CCCOc1ccc(-c2ccc3ncc4c(c3c2)n(C2CCOCC2)c(=O)n4C)cn1 [AZD0156] + O=C(c1cc(Cc2n[nH]c(=O)c3ccccc23)ccc1F)N1CCN(C(=O)C2CC2)CC1 [Olaparib] (first compound max 3 µM, partner max 3 µM) | 0.102 | 0.0178 | -0.193 | -0.0248 | 0.202 | 0.211 | -0.0371 | 0.0868 | 0.142 | 0.139 | 0.0657 | -0.0203 | -0.0207 | 0.0237 | 0.0479 | -0.005 | 0.103 | 0.0017 | 0.0151 | 0.0299
5 | CC1(C)CCC(CN2CCN(c3ccc(C(=O)NS(=O)(=O)c4ccc(NCC5CCOCC5)c([N+](=O)[O-])c4)c(Oc4cnc5[nH]ccc5c4)c3)CC2)=C(c2ccc(Cl)cc2)C1 [Venetoclax] + CCN(CCO)CCCOc1ccc2c(Nc3cc(CC(=O)Nc4cccc(F)c4)[nH]n3)ncnc2c1 [AZD2811] (first compound max 1 µM, 7x7, partner max 1 µM) | 0.101 | -0.0047 | 0.053 | -0.0107 | 0.0126 | -0.0282 | -0.0087 | -0.0928 | -0.045 | 0.055 | -0.0328 | -0.0575 | -0.0171 | -0.048 | -0.0097 | -0.0166 | 0.129 | -0.0081 | 0.025 | -0.0068
6 | CS(=O)(=O)CCNCc1ccc(-c2ccc3ncnc(Nc4ccc(OCc5cccc(F)c5)c(Cl)c4)c3c2)o1 [Lapatinib] + C[C@@H](Oc1cc(-c2cnn(C3CCNCC3)c2)cnc1N)c1c(Cl)ccc(F)c1Cl [Crizotinib] (first compound max 10 µM, 7x7, partner max 10 µM) | -0.0438 | -0.0258 | -0.0234 | -0.0394 | 0.0299 | 0.0037 | -0.0161 | -0.0373 | -0.0784 | 0.0036 | -0.0407 | -0.0031 | -0.0334 | -0.0741 | 0.0337 | -0.0437 | 0.0167 | -0.0417 | 0.012 | -0.0455
7 | CN(CCO)CC[C@H](CSc1ccccc1)Nc1ccc(S(=O)(=O)NC(=O)c2ccc(N3CCC([C@@H](O)c4ccccc4-c4ccc(Cl)cc4)CC3)cc2)cc1S(=O)(=O)C(F)(F)F [AZD4320] + CN(C)CCCOc1ccc(-c2ccc3ncc4c(c3c2)n(C2CCOCC2)c(=O)n4C)cn1 [AZD0156] (first compound max 1 µM, 7x7, partner max 1 µM) | 0.0324 | -0.0545 | -0.0161 | -0.0537 | 0.0491 | 0.0018 | -0.0407 | -0.0302 | 0.0275 | 0.0257 | -0.0386 | -0.038 | -0.0497 | -0.0391 | -0.044 | -0.0314 | 0.0374 | -0.114 | 0.0233 | -0.0301
8 | CC1(C)CCC(CN2CCN(c3ccc(C(=O)NS(=O)(=O)c4ccc(NCC5CCOCC5)c([N+](=O)[O-])c4)c(Oc4cnc5[nH]ccc5c4)c3)CC2)=C(c2ccc(Cl)cc2)C1 [Venetoclax] + C=CCn1c(=O)c2cnc(Nc3ccc(N4CCN(C)CC4)cc3)nc2n1-c1cccc(C(C)(C)O)n1 [AZD1775] (first compound max 1 µM, partner max 1 µM) | 0.0336 | -0.0789 | 0.0736 | -0.0527 | 0.03 | -0.0118 | -0.067 | 0.0262 | 0.0465 | 0.0723 | -0.043 | -0.0286 | -0.0476 | 0.0439 | -0.0416 | 0.025 | -0.001 | -0.028 | -0.0225 | -0.0116
9 | CC(=O)c1c(C)c2cnc(Nc3ccc(N4CCNCC4)cn3)nc2n(C2CCCC2)c1=O [Palbociclib] + Cn1cnc2c(F)c(Nc3ccc(Br)cc3Cl)c(C(=O)NOCCO)cc21 [Selumetinib] (first compound max 10 µM, 7x7, partner max 10 µM) | 0.0184 | -0.0239 | -0.026 | -0.0404 | 0.0342 | -0.0334 | -0.0361 | 0.0164 | -0.0601 | 0.193 | 0.0354 | -0.0509 | 0.0013 | -0.0271 | 0.0418 | 0.0235 | 0.0495 | -0.0588 | 0.0926 | -0.0397
10 | Cc1cc2ncnn2cc1Nc1ncc2c(n1)n(C1CCOCC1)c(=O)n2C [AZD7648] + C=CCn1c(=O)c2cnc(Nc3ccc(N4CCN(C)CC4)cc3)nc2n1-c1cccc(C(C)(C)O)n1 [AZD1775] (first compound max 10 µM, partner max 1 µM) | -0.0188 | -0.0322 | -0.0543 | 0.0306 | 0.0377 | -0.0011 | -0.0355 | 0.0409 | -0.0401 | 0.0144 | -0.0645 | -0.0678 | 0.0039 | -0.0055 | -0.0219 | -0.0031 | 0.0508 | -0.027 | 0.0123 | -0.0102
11 | NC1(C(=O)N[C@@H](CCO)c2ccc(Cl)cc2)CCN(c2ncnc3[nH]ccc23)CC1 [Capivasertib] + Cn1cnc2c(F)c(Nc3ccc(Br)cc3Cl)c(C(=O)NOCCO)cc21 [Selumetinib] (first compound max 10 µM, 7x7, partner max 10 µM) | 0.0394 | -0.0381 | 0.0084 | -0.0081 | 0.0835 | 0.0288 | -0.0223 | 0.0513 | -0.005 | 0.0339 | -0.0123 | -0.0071 | -0.0148 | -0.0381 | 0.091 | -0.0397 | 0.0122 | 0.0162 | 0.121 | 0.0296
12 | Cc1c2c(nn1C)CSCc1cc(n(C)n1)CSc1cc(c3ccccc3c1)OCCCc1c(C(=O)O)n(C)c3c-2c(Cl)ccc13 [AZD5991] + C[C@@H]1COCCN1C2=NC(=NC(=C2)C3(CC3)[S@](=N)(=O)C)C4=C5C=CNC5=NC=C4 [AZD6738] (first compound max 1 µM, 7x7, partner max 10 µM) | -0.02 | 0.0293 | 0.0555 | 0.0122 | 0.0505 | 0.0231 | 0.0623 | -0.0501 | -0.0205 | 0.0186 | -0.0346 | 0.0285 | 0.0578 | -0.024 | 0.0942 | 0.0289 | 0.0961 | 0.0328 | 0.0254 | 0.0192
13 | COc1cccc2c1C(=O)c1c(O)c3c(c(O)c1C2=O)C[C@@](O)(C(=O)CO)C[C@@H]3O[C@H]1C[C@H](N)[C@H](O)[C@H](C)O1 [Doxorubicin] + Cc1cc2ncnn2cc1Nc1ncc2c(n1)n(C1CCOCC1)c(=O)n2C [AZD7648] (first compound max 1 µM, 7x7, partner max 10 µM) | 0.0935 | 0.0433 | -0.0228 | 0.0142 | 0.112 | 0.14 | 0.0489 | 0.0531 | 0.0686 | 0.209 | 0.0055 | 0.003 | 0.0225 | 0.105 | 0.0731 | 0.0672 | 0.144 | -0.039 | 0.0396 | 0.0352
14 | Cc1c2c(nn1C)CSCc1cc(n(C)n1)CSc1cc(c3ccccc3c1)OCCCc1c(C(=O)O)n(C)c3c-2c(Cl)ccc13 [AZD5991] + C[C@@H](Nc1cc(F)cc(F)c1)c1cc(C(=O)N(C)C)cc2c(=O)cc(N3CCOCC3)oc12 [AZD8186] (first compound max 1 µM, 7x7, partner max 3 µM) | 0.0143 | -0.0288 | -0.0524 | 0.0044 | -0.0203 | 0.0273 | 0.0423 | -0.0463 | -0.0481 | -0.0116 | -0.0142 | 0.0179 | 0.0008 | -0.0085 | -0.0161 | 0.0045 | 0.0156 | 0.0416 | 0.0039 | 0.0126
